The values below come from ChEMBL document CHEMBL2094269, “WEHI/Eskitis Trypanosoma b. brucei screening data”.

One assay concerns Trypanosoma brucei brucei. Description: microbe, parasite or virus in culture. The assay is classed as functional, organism-based, STIB 795.
Conditions: not given
Take `CCN(CC)c1ccc(CNCCc2c(C)[nH]c3ccccc23)cc1`: the IC50 (commonly the concentration that gives 50% inhibition) is 3.4 µM.

The same assay, now with this note: Trypanosoma brucei, STIB 795.
For `N#Cc1nc2c(c(N3CCNCC3)c1-c1ccccc1)CCCC2`, the IC50 is > 10.4 µM.
Same read-out and setting: as for `c1ccc(Oc2cccc(-c3nc4ccccc4[nH]3)c2)cc1`, the figure is > 10.4 µM; as for `COc1ccc(/C(N)=N/OC(=O)c2ccc(C)c(C)c2)cc1`, > 10.4 µM; as for `Cc1ccc(CN2C(=O)CCC2C(=O)N2CCN(c3ccc(F)cc3)CC2)cc1` (stereo not given), > 10.4 µM.
For `C=C(CC(CN1CCOCC1)C(=O)c1ccccc1)C(=O)c1ccccc1` (stereo not given), the IC50 is > 10.4 µM.
Take `C=CC1=Nc2ccccc2C(c2ccccc2)(c2ccccc2)N1`: the IC50 was > 10.4 µM.
On the same count and under the same terms, under `N=C(NOC(=O)c1ccc(Cl)c(Cl)c1)c1ccccn1` stands > 10.4 µM; under `COc1ccc(C(=O)CSC2=C(C#N)C3(CCCCC3)C(C#N)=C(N)N2)cc1`, > 10.4 µM.
Same read-out and setting: as for `CCOC(=O)c1cc2c(=O)n3ccccc3nc2n(CCCn2ccnc2)c1=N`, the figure is > 10.4 µM; as for `Cc1ccc(C(=N)NOC(=O)c2cccs2)cc1`, > 10.4 µM.
Take `N=C(N)Nc1nc(-c2ccccc2)c2cc(Cl)ccc2n1`: the IC50 is > 10.4 µM.
Same read-out and setting: under `CCOc1ccc(C(=O)CC(c2ccccc2)C(C#N)C#N)cc1` (stereo not given) stands > 10.4 µM.
In the case of `CCN1c2ccccc2NC2=C(C(=O)CC(C)(C)C2)C1c1ccc(OC)cc1` (stereo not given), the IC50 was > 10.4 µM.
In the case of `CCC(=O)Nc1nc2ccccc2n1Cc1ccccc1C`, the IC50 is > 10.4 µM.
The same measure, in the same setting: as for `CC(C)CCOc1ccc(/C=N/NC(=O)C23CC4CC(C)(CC(C)(C4)C2)C3)cc1`, the figure is > 10.4 µM; as for `Oc1ccc(-c2nnc(SCCN3CCCCC3)n2Cc2ccccc2)cc1`, > 10.4 µM; as for `Cc1nc(NC(C)(C)C)c2sc3nc4c(cc3c2n1)COC(C)(C)C4`, > 10.4 µM.
On to `Cc1cccc(C(=N)NOC(=O)c2ccc3c(c2)OCO3)c1`, for which the half-inhibitory concentration (IC50) is > 10.4 µM.
Still for that read-out and setting: as for `CC1CC(NC2CCCCC2)=Nc2ccccc2N1Cc1ccccc1` (stereo not given), the figure is > 10.4 µM; as for `CCC(=O)N1CCN(c2oc(/C=C/c3ccc(Cl)cc3)nc2C#N)CC1`, > 10.4 µM; as for `COc1ccc2nc(C)cc(Nc3ccc(N4CCOCC4)cc3)c2c1`, > 10.4 µM.
Same read-out and setting: under `CCOC(=O)Cc1ccc(NCc2ccc(F)cc2)cc1` stands > 10.4 µM; under `O=c1oc2c(cc(NS(=O)(=O)c3ccc(F)cc3)c3ccccc32)s1`, > 10.4 µM.
The same measure, in the same setting: as for `CCOC(=O)CNC(=O)c1ccc2c(Cl)c3c(nc2c1)CCCC3`, the figure is > 10.4 µM; as for `CCOC(=O)c1c(-c2cccs2)csc1NC(=O)C#Cc1ccccc1`, > 10.4 µM.
Consider `CC(C)(C)c1ccc(C(=O)NNC(=O)c2cnccn2)cc1`, for which the IC50 was > 10.4 µM.
Same read-out and setting: under `Cc1ncc(C)c2c1[nH]c1ccccc12` stands > 10.4 µM.
Regarding `O=NC1=C(c2c(O)[nH]c3ccccc23)CCCC1`, the IC50 was > 10.4 µM.
Consider `CCCN1CCN(c2ncc3c(n2)CCN(Cc2ccccc2Cl)C3)CC1`, for which the IC50 is > 10.4 µM.
Same read-out and setting: as for `Cc1ccc(C2=NC(c3ccccc3F)NC(c3ccccc3O)C2)cc1` (stereo not given), the figure is > 10.4 µM.
For `CNC(=O)c1c[nH]c2ccc(S(=O)(=O)Nc3ccccc3C)cc2c1=O`, the IC50 was > 10.4 µM.
On the same count and under the same terms, as for `CCN(CC)CCn1c2ccccc2c2nc3ccccc3nc21`, the figure is > 10.4 µM; as for `CCN(CC)c1cc(C)c2cc(NC(=O)C3CCC(C(C)(C)C)CC3)ccc2n1` (stereo not given), > 10.4 µM.
`CC(=O)N(C)c1ccc(/N=C2/C(=O)Nc3cc(Br)c(C)cc32)cc1`: the IC50 was > 10.4 µM.
Regarding `O=C(N/N=C/c1ccc(-c2ccc(Br)cc2)o1)c1ccco1`, the IC50 was > 10.4 µM.
Still for that read-out and setting: under `CCOC(=O)c1c(NC(C)=O)sc2c1CCC(Sc1ccccc1)C2O` (stereo not given) stands > 10.4 µM; under `N#Cc1ccc(-c2csc(NNC(=O)c3ccco3)n2)cc1`, > 10.4 µM; under `OC(CNCCc1ccccc1)CN1c2ccccc2Sc2ccccc21` (stereo not given), > 10.4 µM.
Same read-out and setting: as for `O=C(/C=C/n1c(=O)oc2ccccc21)c1ccccc1`, the figure is > 10.4 µM; as for `C/C(=N\N1C(=O)c2ccccc2NC1c1ccco1)c1ccccc1O` (stereo not given), > 10.4 µM; as for `CCC(C)NC(=O)c1cccc(Nc2ccnc(-c3ccccc3)n2)c1` (stereo not given), > 10.4 µM.
On the same count and under the same terms, under `O=C(NO)c1ccccc1C(F)(F)F` stands > 10.4 µM.
Turning to `NC(=S)N/N=C(/c1ccc(C(F)(F)F)cc1)c1ccccn1`, the IC50 was > 10.4 µM.
Regarding `CCCNc1nc(NC2CCCCC2)nc(NC2CCCCC2)n1`, the IC50 was > 10.4 µM.
As for `COc1ccc(C(=O)O/N=C(\N)c2ccc(Br)cc2)c(OC)c1`, the IC50 is > 10.4 µM.
Regarding `Cc1cc(C(=O)N/N=C/c2c(O)ccc3ccccc23)c(C)o1`, the IC50 is > 10.4 µM.
With `CCCCCOc1ccc(NC(=N)Nc2nc(C)cc(C)n2)cc1`, the IC50 is > 10.4 µM.
Still for that read-out and setting: as for `C/C(=C\c1nsc(Nc2ccc(F)c(Cl)c2)n1)Nc1ccc(C)cc1`, the figure is > 10.4 µM; as for `CC(NCC(O)COCCC12CC3CC(CC(C3)C1)C2)c1ccccc1` (stereo not given), > 10.4 µM; as for `COc1cccc(Nc2nc(N)c(C(=O)c3ccccc3F)s2)c1`, > 10.4 µM.
For `O=C(Nc1ccccc1C(=O)N/N=C/c1ccccn1)c1ccc(Cl)cc1`, the IC50 was > 10.4 µM.
In the case of `CCC(CO)NCC(O)Cn1c2ccc(Cl)cc2c2cc(Cl)ccc21` (stereo not given), the IC50 was > 10.4 µM.
Same read-out and setting: as for `Cc1ccc2cc3c(nc2c1)-c1ccccc1/C3=N/NC(N)=S`, the figure is > 10.4 µM.
For `COc1ccccc1-c1nnc(Cc2ccc(F)cc2Cl)o1`, the IC50 is > 10.4 µM.
Same read-out and setting: under `Cc1c(-c2cc(F)cc3c2CC(C)(C)O3)ccc2nc(N)nc(N)c12` stands > 10.4 µM; under `COc1ccc(O)c(/C=N/NC(=O)c2cccc3ccccc23)c1`, > 10.4 µM.
Consider `Cc1cc(C(=O)N/N=C/c2ccc(-c3cccc(C(=O)O)c3)o2)[nH]n1`, for which the IC50 is > 10.4 µM.
On the same count and under the same terms, under `Nc1nc(Nc2ccccc2)sc1C(=O)c1c[nH]c2ccccc12` stands > 10.4 µM; under `CCC(=O)Nc1nc2ccc(NS(=O)(=O)c3ccccc3F)cc2s1`, > 10.4 µM; under `O=C(N/N=C/c1ccc(O)c2ncccc12)c1ccc(F)cc1`, > 10.4 µM.
Take `OC(COCc1ccc(Cl)cc1)CN1CCC(Cc2ccccc2)CC1` (stereo not given): the IC50 was > 10.4 µM.
On to `COC(=O)C1=C(C)N(c2ccccc2)/C(=C/c2cccc3ccccc23)C1=O`, for which the IC50 was > 10.4 µM.
The same measure, in the same setting: under `Cc1ccc2[nH]c3c(c2c1)CCC(/C=N/NC(=O)c1ccccc1)C3=O` (stereo not given) stands > 10.4 µM; under `C=CCc1c(C)nc(SC)nc1Nc1ccc(C(C)=O)cc1`, > 10.4 µM.
The same measure, in the same setting: as for `Oc1cccc2ccc(Nc3ccccc3)nc12`, the figure is > 10.4 µM.
On the same count and under the same terms, under `CCN(CC)c1ccc(CNCCc2c(C)[nH]c3ccccc23)cc1` stands 5.01 µM; under `CCOC(=O)c1ccc(NC(=O)CN(c2cccc(F)c2)S(C)(=O)=O)cc1`, > 10.4 µM; under `CCOc1ccc(C(=O)N/N=C(\c2ccccc2)c2ccccn2)cc1`, > 10.4 µM.
With `Cc1ccc(O)c(/C=N/NC(=O)C2=NNC(c3ccccc3)(c3ccccc3)C2)c1`, the IC50 was > 10.4 µM.
Still for that read-out and setting: under `CCCCC(CC)C(=O)Nc1ccc2ccc3cccnc3c2n1` (stereo not given) stands > 10.4 µM; under `CCCCN(CCCC)CCC12CC3CC(CC(C3)C1)C2`, > 10.4 µM.
Regarding `COc1cc(NC(=O)Nc2ccc(-c3noc(C)n3)cc2)cc(OC)c1OC`, the IC50 is > 10.4 µM.
Regarding `CCOC(=O)c1sc(=S)n(-c2ccccc2CC)c1N`, the IC50 is > 10.4 µM.
Same read-out and setting: under `CCCCOc1ccc(C(=O)NNC(=S)NC(=O)CC)cc1` stands > 10.4 µM; under `CN(C)CC(C(=O)c1ccccc1)c1ccccc1` (stereo not given), > 10.4 µM; under `N/C(=N\OC(=O)c1ccccc1F)c1ccccc1`, > 10.4 µM.
In the case of `OC(c1ccc(Cl)s1)(c1ccc(Cl)s1)C1CN2CCC1CC2` (stereo not given), the IC50 is > 10.4 µM.
In the case of `COC(=O)c1cc(NC(=O)Nc2ccc3snnc3c2)cc(C(=O)OC)c1`, the IC50 is > 10.4 µM.
`CC1CCN(C(=S)NC(=O)c2ccccc2I)CC1`: the IC50 was > 10.4 µM.
Still for that read-out and setting: as for `O=C1C(C2=C(O)c3ccccc3C2=O)=Nc2ccccc21`, the figure is > 10.4 µM.
On the same count and under the same terms, as for `O=C(O)c1ccc(NC(CC(=O)c2ccc(Cl)cc2)c2ccccc2)cc1` (stereo not given), the figure is > 10.4 µM; as for `O=C1/C(=C2\NCC(c3ccccc3)O2)Sc2ccccc21` (stereo not given), > 10.4 µM; as for `O=C(N/N=C/c1cc(Cl)ccc1O)c1cc(C2CC2)nc2ccccc12`, > 10.4 µM.
Regarding `Clc1ccc2nc(CCc3ccccc3)nc(NCCN3CCCCC3)c2c1`, the IC50 is > 10.4 µM.
For the compound `COc1ccc(/N=N/c2ccc(O)c3ncccc23)cc1`, the IC50 is > 10.4 µM.
As for `CC(=O)c1nc2ccccc2n1CC(=O)c1ccc(C)cc1`, the IC50 is > 10.4 µM.
On the same count and under the same terms, under `CCOC(=O)c1c(N)sc2c(OCC)c(Br)ccc12` stands > 10.4 µM; under `C=CCN1C(=O)c2[nH]nc(-c3c(C)cc(C)cc3O)c2C1c1ccc(F)cc1` (stereo not given), > 10.4 µM.
Turning to `Cc1ccc(C(=O)O/N=C(\N)c2cccnc2)cc1Cl`, the IC50 is > 10.4 µM.
Same read-out and setting: under `O=C1c2ccccc2C2=NS(=O)(=O)c3cccc1c32` stands > 10.4 µM; under `Cc1ccc(Nc2nc3nonc3nc2NC(C)(C)C)cc1Cl`, > 10.4 µM; under `CC(C)CCn1c(/C=N/Nc2nc3ccccc3[nH]2)nc2ccccc21`, > 10.4 µM.
Same read-out and setting: as for `CC(C)=CCC1(C)C(=O)N(c2ccccc2)c2ccccc21` (stereo not given), the figure is > 10.4 µM; as for `COc1cc(C(CC(=O)c2ccco2)Sc2ccccc2)cc(OC)c1OC` (stereo not given), > 10.4 µM.
On the same count and under the same terms, under `C(=N\n1cnnc1)/c1cccc(OCCOc2ccccc2)c1` stands > 10.4 µM; under `CC(=O)C1=C(c2ccc(Br)cc2)C(=O)c2ccccc2C1=O`, > 10.4 µM.
On to `CC12C(=O)N(c3ccc(Cl)cc3O)C(=O)C1C1c3ccccc3C2c2ccccc21` (stereo not given), for which the half-inhibitory concentration (IC50) is > 10.4 µM.
Same read-out and setting: under `CCOC(=O)C1=C(C)NC(SCC(=O)c2ccccc2)=C(C#N)C1CC(C)C` (stereo not given) stands > 10.4 µM; under `COC(=O)c1cc(-c2ccccc2)nc2c1C(=O)C(=O)C=C2N1CCCCC1`, > 10.4 µM.
The same measure, in the same setting: under `Cn1c(=O)sc2cc(S(=O)(=O)Nc3cccc4cccnc34)ccc21` stands > 10.4 µM; under `Cc1ccc(C(CNC(=O)c2ccc(Br)cc2)N2CCCC2)cc1` (stereo not given), > 10.4 µM.
Same read-out and setting: under `O=C(Nc1ccnc(Cl)c1)NC12CC3CC(CC(C3)C1)C2` stands > 10.4 µM; under `CCCCOC(=O)c1ccc(NC(=O)c2ccc(C3CCCCC3)cc2)cc1`, > 10.4 µM.
With `CCn1cc(C(=O)N(C)c2ccccc2F)c2cc(OC)c(OC)cc2c1=O`, the IC50 was > 10.4 µM.
